Experimental data: patent US20260125334A1, “TREATMENT PROCESS FOR PFAS-CONTAINING COMPOUNDS” (priority 2023, published 2026)

Tests used:
[1] = Effect of treatment rate on PFAS removal from synthetic AFFF wastewater, NMR (Example 4)
Description: Dimethyldimyristylammonium Bromide was tested in synthetic AFFF wastewater to determine if removal efficiency of the PFAS is affected by treatment rate. The treatment compound was added at 2%, 3%, and 4% w/w loading to AFFF wastewater. Solids were separated out via centrifugation and the solution was analyzed by NMR. […] FIG. 5 is the NMR spectra of each solution after treatment. […] As quat loading increased, the total area under the peaks was reduced. In the sample with 4% dimethyldioctadecylammonium bromide loading, total peak area was reduced by 90%.

[2] = Short chain PFAS standard treated with 2% quat: all PFAS (Example 5)
Description: A standard with approximately 1000 ppt each of PFOA, perfluoro-n-pentanoic acid (PFPeA), and perfluorobutane sulfonic acid (PFBS) was prepared via serial dilution and treated with 2% dimethyldioctadecylammonium bromide in technical triplicate. Samples were centrifuged and the liquid was filtered into a new centrifuge tube using a 0.45 micron syringe filter. Table 2 indicates the concentration of each PFAS after treatment.

[3] = PFAS removal kinetics in PFAS-contaminated field sample, LC-QTOF (Example 6); conditions: 0.01% treatment; aliquots at 0, 5, 10, 30, 90 minutes
Description: To determine PFAS removal kinetics, a PFAS-contaminated field sample was treated with dimethyldioctadecylammonium bromide. Aliquots were pulled at timed intervals and tested for remaining PFAS content. To a polypropylene bottle, 1000 mL of approximately 4 ppm PFAS-contaminated water was added to a 1 L HDPE bottle with a Teflon stir bar. The sample was stirred at 500 RPM for 10 minutes prior to the start of the experiment. To a 50 mL centrifuge tube, 20 mL aliquots were collected at 0, 5, 10, 30, and 90 minutes following treatment with 0.01%. Each sample was centrifuged to remove any remaining solids and passed through 0.45 micron filter prior to analysis by LC-QTOF. […] Subsequent PFAS removal was noted but minimal.

[4] = Solubility in water

Concentration of remaining PFAS as concentration of quaternary ammonium compound increased ([1]; 2%, 3%, and 4% w/w loading) | Structure (SMILES) | Reduction in all PFAS concentrations [2] | Remaining PFAS content between the T=0 and T=5 sample [3] | Solubility in water [4] | Reduction of total NMR peak area ([1]; 4% w/w loading)
decreased | CCCCCCCCCCCCCC[N+](C)(C)CCCCCCCCCCCCCC.[Br-] [Dimethyldimyristylammonium bromide, dimethyldimyristylammonium bromide] |  |  |  | 
 | CCCCCCCCCCCCCCCCCC[N+](C)(C)CCCCCCCCCCCCCCCCCC.[Br-] [Dimethyldioctadecylammonium bromide, dimethyldioctadecylammonium bromide] | > 99.87% | rapid decrease | nearly insoluble in water | 90%
